# According to patent US4250259A, “Microbiological production of ketones from C3 -C6 secondary alcohols” (priority 1979, dated 1981):
# Entries after “also recorded” stand apart in the source; their conditions may differ.
# What was measured:
# [1] = test system: purified secondary alcohol dehydrogenase; assay: inhibition of purified yeast SADH; type: biochemical, Pichia sp. NRRL Y-11,328; conditions: primary alcohols tested at 10^-3 M
# Method: Large scale cultures of Pichia sp. NRRL Y-11,328 were grown with aeration at 30° C. in a 14-liter New Brunswick f fermentor in a mineral salt medium containing methanol (0.4%, v/v) as the sole carbon source. The cells (200 g., wet weight) were suspended in […] sodium phosphate buffer, pH 7.0, containing 1 mM dithiothreitol (buffer A), and crude extracts were prepared as described previously. To the crude extracts, 18 ml. of protamine sulfate solution [2% solution in 0.1 M tris (hydroxymethyl) aminomethane (tris) base] was added dropwise with continuous stirring. After standing for 30 min., the extracts were centrifuged at 20,000× g. for 60 min. The supernatant solution was fractionated with solid ammonium sulfate. Extracts were brought to 50% of saturation with respect to ammonium sulfate by addition of 313 g. of the salt per liter of extract. Precipitated proteins was removed by centrifugation, and 137 g. of ammonium sulfate was added per liter of the supernatant liquid to bring it to 70% of saturation. Material precipitating between 50 and 70% of saturation was collected by centrifugation and dissolved in buffer A. This preparation was dialyzed overnight against buffer A, and the dialyzed material was applied to a DEAE-cellulose column (5×40 cm) that had been equilibrated with buffer A. The sample was washed with 200 ml. of buffer A and eluted with 2 liters of buffer A that contained NaCl in a linear gradient running from a concentration of 0 to 0.5 M. Fractions of 15 ml. were collected. Fractions containing secondary alcohol dehydrogenase activity were pooled and were termed DEAE-cellulose eluate. The DEAE-cellulose eluate was concentrated by ammonium sulfate fractionation.
# Secondary alcohol dehydrogenase activity was measured spectrophotometrically at 340 nm with a NAD^+ as an electron acceptor. The reaction mixture, in a total 3.0 ml., contained 50 mM phosphate buffer, pH 8.0, 5 μmoles NAD^+, crude extracts, and substrate. The reactions were started by addition of 100 μl of 0.1 M substrate and the rate of NAD^+ reduction was measured. Protein concentration was determined by the method of Lowry et al.
# Various primary alcohols not oxidized by secondary alcohol dehydrogenase were tested as potential inhibitors of enzyme activity.
# [2] = test system: purified secondary alcohol dehydrogenase (SADH); assay: inhibition of purified SADH by metal-chelating agents, thioreagents, metals; type: biochemical, Pseudomonas sp. ATCC 21439; conditions: for % inhibition of SADH activity: each inhibitor at a final concentration of 1 mM, measured spectrofluorometrically
# Method: Secondary alcohol dehydrogenase (SADH) from an obligate methanol utilizer, Pseudomonas sp. ATCC 21439 was purified as follows. […] 0.05 M sodium phosphate buffer, pH 7.0 with 0.5 mM dithiothretol (buffer A) and were disrupted sonically (5×1 min.). The crude extract was separated by centrifugation. The crude extract was heat-treated at 50° C. in a water bath for 10 minutes. The resulting precipitate was removed by centrifugation. To the supernatant solution, 25 ml of protamine sulfate solution (2% solution in 0.1 M Tris base) was added dropwise with continuous stirring. After standing for 30 minutes, the extract was centrifuged. The supernatant solution was fractionated with solid ammonium sulfate. […] This DEAE-cellulose eluate was concentrated by ammonium sulfate fractionation. Material precipitating between 30 and 50% ammonium sulfate saturation was collected by centrifugation and dialyzed overnight against A. This fraction was further washed and filtered through an Amicon unit with XM 50 membrane. The concentrated fraction (6 ml) inside the Amicon unit was applied to an Affi-Gel Blue column (0.8 cm×18 cm) which had been equilibrated with buffer A for affinity chromatography. The column was washed overnight with buffer A (0.18 ml./min.) and then was eluted with buffer A containing 5 mM NAD. Each 1 ml. fraction was collected.
# The purified secondary alcohol dehydrogenase enzyme (SADH) may be used directly for converting C3 -C6 secondary alcohols to the corresponding methyl ketones by the procedures described above; however, a source of NAD^+ must be added to the reaction medium. One can determine the NAD-linked secondary alcohol dehydrogenase activity with a fluorescence spectrophotometer (Perkin Elmer, Model MPF 44A) by following the formation of reduced NAD (Ex 340 nm, Em 460 nm). The assay system (3 ml.) will typically contain: sodium phosphate buffer pH 7.0, 150 μmol; NAD 1.0 μmol; a given amount of enzyme preparation; and 20 μmol secondary alcohol. The reaction is started by the addition of secondary alcohol. One unit of SADH enzyme activity represents the reduction of one nmole NAD per minute.
# The effect of metal-chelating agents and thioreagents on the activity of the purified SADH enzyme were studied. […] The possibility of ethanol or n-propanol as an inhibitor was studied.
# [3] = test system: cell suspensions of C1-utilizers; assay: studies on production of 2-butanone from 2-butanol by cell suspensions of the strains tested; type: cell-based; conditions: for inhibition of production of 2-butanone from 2-butanol by cell suspensions: strains tested
# Description: The following summarizes tests conducted on the optimal conditions for the production of methyl ketones from C3 -C6 sec. alcohols.
# The substrate specificity for the oxidation of C3 -C6 secondary alcohols by the strains of C1 -utilizers was studied.
# [4] = test system: cell-free particulate fractions of methane-grown methylotrophs; assay: inhibitors and electron donors of n-alkane conversion to sec. alcohols by cell-free particulate fractions; type: biochemical
# Description: The conditions for preparing the cell suspensions or the cell-free particulate fractions from methane-grown methylotroph microorganisms is the same as described above.
# [5] = test system: cell-free extracts of strain ATCC 21439; assay: stoichiometry of production of 2-butanone from 2-butanol by cell-free extracts (Table IX); type: biochemical, Pseudomonas sp. ATCC 21,439; conditions: for NAD Consumed: fluorescence spectrophotometrically
# Method: The reaction mixtures 3 ml (1.0 mg protein) were incubated at 30°
# ^(a) Determined gas chromatographically.
# ^(b) Determined fluorescence spectrophotometrically.
# consumption of NAD was corrected.
# [6] = test system: cell-free SADH system; assay: cofactor requirement of the cell-free SADH systems; type: biochemical; conditions: cell-free systems tested
# Method: To prepare the cell-free secondary alcohol dehydrogenase (SADH) system, the washed cells were disrupted with a Wave Energy Ultrasonic Oscillator, Model W201 (Wave Energy System, Inc., Newtown, Pa.) and centrifuged at 20,000×g. for 30 minutes. […] The enzyme activity was measured with a fluorescence spectrophotometer (Perkin Elmer, Model MPF 44A) by following the formation of reduced NAD (EX 340 nm, Em 460 nm). The formation of reduced NAD was also followed with an absorption spectrophotometer at 340 nm. The assay system (3 ml.) contained: potassium phosphate buffer pH 7.0; 150 μmol.; NAD 1 μmol.; a given amount of enzyme preparation; and secondary alcohol 10 μmol. The reaction was started by the addition of substrate. One unit of enzyme activity represents the reduction of one μmole NAD per minute. Protein concentrations were determined by the Lowry method (J. Biol. Chem., 193: 255-275 (1951)).
# [7] = test system: purified secondary alcohol dehydrogenase; assay: substrate specificity, electron acceptor and stoichiometry of purified yeast SADH
# [8] = test system: Methylosinus trichosporium (OB3b, NRRL-B-11,196); assay: n-alkanes to secondary alcohols by cell suspensions (Table XVI); type: cell-based; conditions: Growth Substrate Methane
# Description: (§1) Both cell suspensions (particulate fraction) and cell-free particulate fraction of methane-grown methylotroph microorganisms are capable of catalyzing the conversion of C3 -C6 n-alkanes to the corresponding alcohols including secondary alcohols. The conditions for preparing the cell suspensions or the cell-free particulate fractions from methane-grown methylotroph microorganisms is the same as described above. The cell-free particulate fraction requires the presence of oxygen and NADH as an electron donor. […] Tables XVI and XVII show the conversion of C3 -C6 n-alkanes to the corresponding secondary alcohols using cell suspensions and cell-free particulate fractions, respectively, of methane-grown methylotroph microorganisms.
# (§2) ^(a) The product secondary alcohols were identified and estimated by […]
# [9] = test system: Methylococcus capsulatus (Texas, ATCC 19,069); assay: as above; type: cell-based; conditions: Growth Substrate Methane
# Description: as §1, §2
# [10] = test system: Methylobacterium sp. (CRL-26, NRRL-B-11,208); assay: as above; type: cell-based; conditions: Growth Substrate Methane
# Description: as §1, §2
# [11] = test system: Methylococcus capsulatus Texas (ATCC 19069); assay: n-alkanes to methyl ketones by resting cell suspensions (Table I); type: cell-based; conditions: cells grown on methane; 30° C.
# Method: (§3) The pH of the nutrient medium was adjusted to 7.0 by the addition of acid or base and 50 ml. samples of the nutrient medium were charged into a plurality of 300 ml. shaker flasks. […] The isolates had been maintained on methanol (0.4% V/V) agar plates or on agar plates under an atmosphere of methane and air having a 1:1 V/V gas ratio which had been transferred every two weeks. For growth on methanol, the medium was supplemented with 0.4% methanol. For growth on methane, the gaseous phase of the inoculated flasks was replaced with a gas mixture comprised of methane and air having a ratio of 1:1 on a V/V basis. The inoculated flasks were sealed air-tight and were incubated on a rotary shaker of orbital radius 2.5 cm. at 250 rpm and at 30° C. for two days until turbidity in the medium had developed. The cells were harvested by centrifugation at 10,000×g. at 4° C. for 30 minutes. The cell pellet was washed twice with a 0.05 M phosphate buffer at a pH of 7.0 (containing 0.02 M MgCl2). The washed cells were then suspended in a 0.05 M phosphate buffer at pH 7.0.
# (§4) A 0.5 ml. sample of each washed cell suspension (2 mg. cells) was put into 10 ml. vials at 4° C. which were sealed with a rubber cap. The gaseous phase of the vials was removed with vacuum and then was replaced with a gas mixture of the substrate reactant (i.e., alkane or secondary alcohol) and oxygen at a 1:1 V/V ratio. (In the case of a liquid substrate, i.e., secondary alcohol, 10 μl of the substrate was put in the 10 ml. vials). The vials were then incubated at 30° C. on a rotary shaker at 300 rpm. Samples of product (1-3 μl) were withdrawn periodically with a microsyringe and the products were analyzed by gas chromatography (ionization flame detector column).
# [12] = test system: Methylocystis parvus OBBP (NRRL B-11,198); assay: as above; type: cell-based; conditions: cells grown on methane; 30° C.
# Method: as §3, §4
# [13] = test system: Methylobacter capsulatus Y (NRRL B-11,201); assay: as above; type: cell-based; conditions: cells grown on methane; 30° C.
# Method: as §3, §4
# [14] = test system: Methylosinus trichosporium OB3b (NRRL B-11,196); assay: as above; type: cell-based; conditions: cells grown on methane; 30° C.
# Method: as §3, §4
# [15] = test system: Methylomonas methanica SI (NRRL B-11,199); assay: as above; type: cell-based; conditions: cells grown on methane; 30° C.
# Method: as §3, §4
# [16] = test system: Methylobacterium organophilum XX; assay: as above; type: cell-based; conditions: cells grown on methane; 30° C.
# Method: as §3, §4
smiles,measurement,setting,value
"c1cnc2c(c1)ccc1cccnc12 [1,10-phenanthroline]",inhibition of purified yeast secondary alcohol dehydrogenase activity,[1],strongly inhibited
same,% inhibition of SADH activity,[2],95%
same,inhibition of production of 2-butanone from 2-butanol by cell suspensions,[3],inhibited
same,inhibition of conversion of n-alkanes to sec. alcohols (words),[4],inhibited
CCC(C)=O [2-butanone],inhibition of SADH activity,[2],inhibited
same,further oxidation / degradation of 2-butanone by viable cell suspensions,[3]; 8 μmoles of 2-butanone added,Some enzymatic degradation; also recorded: slowly disappeared
same,inhibition of production of 2-butanone from 2-butanol by cell suspensions,[3],No product (2-butanone) inhibition was observed; also recorded: did not inhibit
same,2-Butanone Produced,"[5]; Experiment 2: 20 min., gas chromatographically",520 nmol
"N[C@@H](CCC(=O)N[C@@H](CS)C(=O)NCC(=O)O)C(=O)O [GSH, glutathione]",inhibition of purified yeast secondary alcohol dehydrogenase activity,[1],strongly inhibited
same,effectiveness as cofactor for oxidation of 2-butanol / C3-C6 secondary alcohols,[6],not effective
"NC(=O)c1ccc[n+]([C@@H]2O[C@H](COP(=O)([O-])OP(=O)(O)OC[C@H]3O[C@@H](n4cnc5c(N)ncnc54)[C@H](O)[C@@H]3O)[C@@H](O)[C@H]2O)c1 [NAD, Nicotinamide adenine dinucleotide, reference compound]",effectiveness as cofactor for oxidation of 2-butanol / C3-C6 secondary alcohols,[6],required
same,ability to act as electron acceptor/carrier for the purified enzyme,[7],required
same,NAD Consumed,[5]; Experiment 1: 10 min.,270 nmol
same,NAD Consumed,[5]; Experiment 2: 20 min.,540 nmol
O=S(=O)([O-])[O-].[Cu+2] [cupric sulfate],inhibition of purified yeast secondary alcohol dehydrogenase activity,[1],inhibited
c1c[nH]cn1 [imidiazole],inhibition of purified yeast secondary alcohol dehydrogenase activity,[1],strongly inhibited
N#C[S][Hg][S]C#N [mercuric thiocyanate],inhibition of purified yeast secondary alcohol dehydrogenase activity,[1],inhibited
"CCCCCC [n-Hexane, n-hexane]","Conversion Rate, n-alkane to corresponding secondary alcohol",[8],0.01 μmoles/hr/^5 mg. protein
same,"Conversion Rate, n-alkane to corresponding secondary alcohol",[9],0.01 μmoles/hr/^5 mg. protein
same,"Conversion Rate, n-alkane to corresponding secondary alcohol",[10],0.007 μmoles/hr/^5 mg. protein
same,"Conversion Rates, n-alkane to corresponding methyl ketone",[11],0.09 μmoles/hr/mg protein
same,"Conversion Rates, n-alkane to corresponding methyl ketone",[12],0.04 μmoles/hr/mg protein
same,"Conversion Rates, n-alkane to corresponding methyl ketone",[13],0.07 μmoles/hr/mg protein
same,"Conversion Rates, n-alkane to corresponding methyl ketone",[14],0.05 μmoles/hr/mg protein
same,"Conversion Rates, n-alkane to corresponding methyl ketone",[15],0.02 μmoles/hr/mg protein
same,"Conversion Rates, n-alkane to corresponding methyl ketone",[16],0.09 μmoles/hr/mg protein
"CCCCC [n-Pentane, n-pentane]","Conversion Rate, n-alkane to corresponding secondary alcohol",[8],0.06 μmoles/hr/^5 mg. protein
same,"Conversion Rate, n-alkane to corresponding secondary alcohol",[9],0.032 μmoles/hr/^5 mg. protein
same,"Conversion Rate, n-alkane to corresponding secondary alcohol",[10],0.01 μmoles/hr/^5 mg. protein
same,"Conversion Rates, n-alkane to corresponding methyl ketone",[11],0.42 μmoles/hr/mg protein
same,"Conversion Rates, n-alkane to corresponding methyl ketone",[12],0.51 μmoles/hr/mg protein
same,"Conversion Rates, n-alkane to corresponding methyl ketone",[13],0.63 μmoles/hr/mg protein
same,"Conversion Rates, n-alkane to corresponding methyl ketone",[14],0.72 μmoles/hr/mg protein
same,"Conversion Rates, n-alkane to corresponding methyl ketone",[15],0.28 μmoles/hr/mg protein
same,"Conversion Rates, n-alkane to corresponding methyl ketone",[16],0.58 μmoles/hr/mg protein
O=C(O)c1cc[c]([Hg+])cc1.[OH-] [p-hydroxymercuribenzoate],inhibition of purified yeast secondary alcohol dehydrogenase activity,[1],strongly inhibited
same,% inhibition of SADH activity,[2],100%
O=[N+]([O-])[O-].[Ag+] [silver nitrate],inhibition of purified yeast secondary alcohol dehydrogenase activity,[1],inhibited
